This is an account of results in US20140155389A1, “BICYCLIC INHIBITORS OF ALK” (ABBVIE INC., priority 2011, published 2014).

This assay concerns the target T1, ALK (Homo sapiens, UniProt Q9UM73).
T1 construct: purchased Millipore
Briefly: ALK kinase assay (HTRF). In kind it is biochemical. Particulars: apparent Ki from IC50 by Cheng-Prusoff; ALK (Millipore) 3 nM or 4 nM, 50 μM ATP, 1 h at room temperature; read-out: HTRF_ALK Human - Ki.

T1 sequence (Q9UM73 19-1620): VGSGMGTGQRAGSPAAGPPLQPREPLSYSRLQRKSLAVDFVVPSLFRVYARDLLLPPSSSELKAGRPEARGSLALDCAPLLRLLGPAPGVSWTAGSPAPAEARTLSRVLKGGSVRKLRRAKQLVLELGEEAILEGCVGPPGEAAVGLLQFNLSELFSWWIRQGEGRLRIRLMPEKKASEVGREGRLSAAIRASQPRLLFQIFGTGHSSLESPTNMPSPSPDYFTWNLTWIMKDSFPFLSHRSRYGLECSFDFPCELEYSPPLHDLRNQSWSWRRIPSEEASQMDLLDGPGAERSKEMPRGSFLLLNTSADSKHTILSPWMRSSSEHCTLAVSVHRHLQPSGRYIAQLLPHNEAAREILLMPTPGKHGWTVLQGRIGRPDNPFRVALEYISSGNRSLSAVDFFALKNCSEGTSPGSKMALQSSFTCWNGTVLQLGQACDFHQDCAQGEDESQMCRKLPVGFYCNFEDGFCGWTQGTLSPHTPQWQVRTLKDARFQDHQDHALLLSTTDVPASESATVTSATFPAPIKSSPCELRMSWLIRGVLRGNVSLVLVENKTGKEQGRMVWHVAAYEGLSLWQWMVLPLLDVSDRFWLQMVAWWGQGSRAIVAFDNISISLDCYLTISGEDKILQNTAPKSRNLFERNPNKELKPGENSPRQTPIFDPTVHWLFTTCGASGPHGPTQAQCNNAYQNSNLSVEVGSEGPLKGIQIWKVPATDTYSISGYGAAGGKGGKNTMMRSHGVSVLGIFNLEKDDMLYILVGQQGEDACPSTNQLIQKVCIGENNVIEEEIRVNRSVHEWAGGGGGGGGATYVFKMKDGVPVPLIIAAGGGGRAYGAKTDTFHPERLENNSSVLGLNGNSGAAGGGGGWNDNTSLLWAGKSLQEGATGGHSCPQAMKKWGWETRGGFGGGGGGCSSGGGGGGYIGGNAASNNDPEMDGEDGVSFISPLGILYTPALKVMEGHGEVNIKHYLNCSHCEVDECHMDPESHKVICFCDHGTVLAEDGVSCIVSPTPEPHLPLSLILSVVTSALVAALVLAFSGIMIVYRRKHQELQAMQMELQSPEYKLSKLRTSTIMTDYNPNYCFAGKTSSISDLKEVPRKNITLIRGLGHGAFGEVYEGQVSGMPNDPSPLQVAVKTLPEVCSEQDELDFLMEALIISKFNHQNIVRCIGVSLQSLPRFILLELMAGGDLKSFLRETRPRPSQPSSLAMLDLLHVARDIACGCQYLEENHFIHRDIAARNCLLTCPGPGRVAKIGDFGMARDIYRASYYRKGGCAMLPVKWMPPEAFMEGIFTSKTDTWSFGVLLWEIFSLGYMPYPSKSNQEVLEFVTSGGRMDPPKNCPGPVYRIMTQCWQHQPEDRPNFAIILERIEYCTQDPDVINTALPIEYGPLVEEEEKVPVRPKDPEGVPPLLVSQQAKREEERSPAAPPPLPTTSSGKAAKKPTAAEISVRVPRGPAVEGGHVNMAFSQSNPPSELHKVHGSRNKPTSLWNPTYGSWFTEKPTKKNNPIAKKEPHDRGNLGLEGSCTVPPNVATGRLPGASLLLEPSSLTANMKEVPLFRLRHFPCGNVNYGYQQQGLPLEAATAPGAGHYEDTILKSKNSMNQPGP

On to `COc1cc(N2CCNCC2)ccc1Nc1nc(Oc2ccc(Cl)cc2Cl)cc2cn[nH]c(=O)c12` [Example 85, 7-(2,4-dichlorophenoxy)-5-{[2-methoxy-4-(piperazin-1-yl)phenyl]amino}pyrido[3,4-d]pyridazin-4(3H)-one], for which the Ki was determined as 5 nM.

For `COc1cc(N2CCNCC2)ccc1Nc1nc(-c2ccccc2)cc2cn[nH]c(=O)c12` [Example 41, 5-{[2-methoxy-4-(piperazin-1-yl)phenyl]amino}-7-phenylpyrido[3,4-d]pyridazin-4(3H)-one], the Ki turned out to be 28 nM.

As for `O=c1[nH]ncc2cc(Oc3ccccc3Cl)nc(Nc3ccc(N4CCNCC4)cc3OC(F)F)c12` [Example 117, 7-(2-chlorophenoxy)-5-{[2-(difluoromethoxy)-4-(piperazin-1-yl)phenyl]amino}pyrido[3,4-d]pyridazin-4(3H)-one], the Ki was determined as 15 nM.

`N#Cc1cc(N2CCNCC2)ccc1Nc1nc(Oc2ccccc2Cl)cc2cnnc(O)c12` [Example 120, 2-{[7-(2-chlorophenoxy)-4-hydroxypyrido[3,4-d]pyridazin-5-yl]amino}-5-(piperazin-1-yl)benzonitrile]: the Ki was 2 nM.

Take `COc1cc(C2CCNCC2)ccc1Nc1nc(Oc2ccccc2Cl)cc2cnnc(O)c12` [Example 98, 7-(2-chlorophenoxy)-5-{[2-methoxy-4-(piperidin-4-yl)phenyl]amino}pyrido[3,4-d]pyridazin-4-ol]: the Ki stood at 9 nM.
